Patent US9005670B2, “Use of histone acetyltransferase inhibitors as novel anti-cancer therapies” (The Johns Hopkins University, priority 2010, dated 2015)
“Also recorded” adds a separate entry of the source.

Tests used:
[1] = system: Mel-1 melanoma cells; assay: combination with chemotherapy, total cell number; type: cell-based; details: 48 hours
Description: The cells were grown for 24 hours in medium. The cells were given fresh medium and either 1 μM of cisplatin or 200 μM of temozolamide was added. Total cell number was counted on Day 0, at 24 hours, and 48 hours after addition of cisplatin or temozolamide.
After 24 hours, the treated and mock-treated cells were given fresh medium, and the cells were treated with cisplatin or temozolamide for 48 hours.

[2] = system: histone H3 and H4 acetylation in C3H 10T1/2 mouse fibroblasts; assay: histone acetylation Western blot in mouse cells; type: cell-based
Excerpt: Histones in mammalian cells show characteristic rates of turnover of acetylation, with a majority showing slower rates and a very minor fraction showing very fast turnover. This latter fraction has been associated with gene activation, and is defined by rapid hyperacetylation in the presence of deacetylase inhibitors such as Trichostatin A (TSA). In addition to SDS gels (FIG. 9A), Acid-Urea gels (AU, FIG. 9B) were used, on which loss of a positive charge upon lysine acetylation retards migration, producing a ladder of bands corresponding to integral changes in acetylation.
C3H 10T1/2 mouse fibroblasts were grown in DMEM with 10% FCS at 37° C. with 5% CO2. Confluent cultures were rendered quiescent in DMEM with 0.5% FCS for 18-20 h prior to treatment. […] Antibodies were used at the following concentrations: total H3 (1:10000; ab7834; Abcam); H4K12ac (1:2500; 06-761; Upstate). Rabbit anti-H3K9ac (1:10000) antibodies were generated in-house. Histones were isolated from cells by acid extraction, separated by SDS and acid-urea polyacrylamide gel electrophoresis and analyzed by Western blotting.

[3] = molecular target: T1, p300 HAT (Homo sapiens, UniProt Q09472, DEL1529-1560/M1652G); assay: direct radioactive p300 HAT assay (14C-acetyl-CoA transfer to H4-15); type: biochemical
T1 construct: A variant of the HAT domain of p300 (residues 1287 to 1652) was expressed as a fusion; a C-terminal peptide corresponding to residues 1653-1666 of p300; made in house; host or cells: E. coli BL21(RIL)-DE3; C-terminal peptide by solid phase synthesis
T1 sequence (Q09472 with tags, fused parts or gaps DEL1529-1560/M1652G limits assumed): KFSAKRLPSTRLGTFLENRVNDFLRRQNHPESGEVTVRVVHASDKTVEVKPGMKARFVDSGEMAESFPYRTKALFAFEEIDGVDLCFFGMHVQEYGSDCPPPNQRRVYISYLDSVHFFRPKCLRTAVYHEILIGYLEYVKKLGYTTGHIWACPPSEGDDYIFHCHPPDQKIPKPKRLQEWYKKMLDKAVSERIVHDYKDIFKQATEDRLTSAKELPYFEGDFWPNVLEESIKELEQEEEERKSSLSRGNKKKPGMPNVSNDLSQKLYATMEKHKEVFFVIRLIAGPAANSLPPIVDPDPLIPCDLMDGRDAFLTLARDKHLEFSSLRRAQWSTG
Description: In this assay, production of ^14C-labeled Ac-H4-15 is monitored electrophoretically. Reactions were performed in 20 mM HEPES, pH 7.9, and contained 5 mM DTT, 80 μM EDTA, 40 μg/mL BSA, 100 μM H4-15, and 5 nM p300. […] Reactions were incubated at 30° C. for 10 minutes, initiated with addition of a 1:1 mixture of 12 C-acetyl-CoA and 14 C-acetyl-CoA to a final concentration of 20 μM, and allowed to run for 10 min at 30° C. Reactions are then quenched with addition of 14% SDS (w/v). Turnover was kept below 10%. All compounds were screened in duplicate. Samples were then loaded onto a 16% Tris-Tricine gel along with a BSA standard and run at 140 V for 90 minutes. Gels were washed and dried, and exposed in a PhosphorImager cassette for ˜2 days. Bands corresponding to Ac-H4-15 were then quantified using ImageQuant.
Reactions were performed in 20 mM HEPES, pH 7.9, and contained 5 mM DTT, 80 μM EDTA, 40 μg/mL BSA, 100 μM […], and 5 nM p300. Putative inhibitors were added over a range of concentrations, with DMSO concentration kept constant (<5%). Reactions were incubated at 30° C. for 10 minutes, then initiated with addition of a 1:1 mixture of ^12C-acetyl-CoA and ^14C-acetyl-CoA to 20 μM. After […] at 30° C., reactions were quenched with 14% SDS (w/v). All concentrations were screened in duplicate. Gels were run, washed, dried, and exposed to a PhosphorImager plate as described above, and production of Ac-H4-15 quantified. Data were fit to the following equation to obtain IC50s. […]

[4] = system: WM983A melanoma cells; assay: 3H-thymidine incorporation, WM983A; details: 20 μM, 24 hours
[5] = cells pre-treated with 2 μM C646 for 24 hours, then 1 μM cisplatin or 200 μM temozolamide
[6] = mock-treated cells, 1 μM cisplatin or 200 μM temozolamide

SMILES	p300 HAT inhibition, result in words (analogs compared with C646) [3]	melting point [°C]	also measured
Cn1nnc2c(C(N)=O)ncn2c1=O [temozolamide]	–	–	decrease in cell number [1, 5]: 31%; decrease in cell number [1, 6]: 13%
CC(/C=C/C(=O)NO)=C\[C@@H](C)C(=O)c1ccc(N(C)C)cc1 [TSA, Trichostatin A, reference compound]	–	–	acetylation of H3 and H4 ([2]; TSA 33 nM, 30 minutes): increased
CC1=NN(c2ccc(C(=O)O)cc2)C(=O)C1Cc1ccc(-c2cc(C)c(C)cc2[N+](=O)[O-])o1 (stereo not shown) [Compound C37, 4-{4-[5-(4,5-Dimethyl-2-nitro-phenyl)-furan-2-ylmethyl]-3-methyl-5-oxo-4,5-dihydro-pyrazol-1-yl}-benzoic acid]	does not detectably block p300 HAT activity; also recorded: did not detectably block p300 HAT activity; also recorded: devoid of p300 HAT inhibitory activity	–	sensitivity of cell line to compound [4]: resistant; acetylation of H3 or H4, with and without TSA ([2]; 25 μM, 3 hours): no effect
N.N.[Cl][Pt][Cl] [cisplatin]	–	–	decrease in cell number [1, 5]: 28%; decrease in cell number [1, 6]: 35%
CC1=NN(c2ccc(C(=O)O)cc2)C(=O)/C1=C\c1ccc(-c2ccccn2)o1 [Compound 6p, 4-(4,5-dihydro-3-methyl-5-oxy-4-((5-(pyridin-2-yl)furan-2-yl)methylene)pyrazol-1-yl)benzoic acid]	eliminated p300 inhibitory action	294 to 296	–
COC(=O)c1cc(C)c(C)cc1-c1ccc(/C=C2\C(=O)N(c3ccc(C(=O)O)cc3)N=C2C)o1 [Compound 6m, 4-(4,5-dihydro-4-((5-(4,5-dimethyl-2-methylbenzoate)furan-2-yl)methylene)-3-methyl-5-oxapyrazol-1-yl)benzoic acid]	well tolerated	254 to 256	–
COC(=O)c1ccc(N2N=C(C)C(=Cc3ccc(-c4cc(C)c(C)cc4[N+](=O)[O-])o3)C2=O)cc1 [Compound 6h, Methyl 4-(4,5-dihydro-3-methyl-4-((5-(4,5-dimethyl-2-nitrophenyl)furan-2-yl)methylene)-5-oxopyrazol-1-yl)benzoate]	–	214 to 216	weakening of p300 inhibitory potency compared with C646 (relative IC50) ([3]; range of concentrations): > 15 fold
CC1=NN(c2ccc(C(N)=O)cc2)C(=O)C1=Cc1ccc(-c2cc(C)c(C)cc2[N+](=O)[O-])o1 [Compound 6a, 4-(4,5-dihydro-3-methyl-4-((5-(4,5-dimethyl-2-nitrophenyl)furan-2-yl)methylene)-5-oxopyrazol-1-yl)benzamide]	well tolerated	273 to 275	–
